In patent EP1712231A2 (priority 1998, dated 2000):

What was measured:
[1] = Example 3: pharmacokinetic drug-drug interaction of tipranavir 1200 mg BID and delavirdine 400 mg TID, plasma levels by HPLC
Experimental: Baseline pharmacokinetic data for each drug were obtained under pharmacokinetic steady-state conditions following 7 days of dosing. Each drug was then co-administered for 10 days, at which time the pharmacokinetics of each was re-evaluated and compared with baseline data. […] All subjects were Caucasian. […] Pharmacokinetic analyses were based on results obtained in these subjects.
Detection was by UV absorbance at 260 nm.
Plasma samples were assayed for delavirdine concentrations using a validated, sensitive and specific isocratic high performance liquid chromatographic (HPLC) method: one for the upper concentration range, and one for the lower concentration range. […] The supernatant was mixed with buffer and directly injected. Chromatographic separation was achieved using a Brownlee cyano guard column and an analytical column, DuPont Zorbax® SB CN.
Treatment effects on pharmacokinetic parameters were assessed using Wilcoxon's Signed Rank Test.

[2] = Study 1: pharmacokinetic drug-drug interaction of tipranavir 1350 mg BID and ritonavir 500 mg BID, plasma levels by HPLC; type: in vivo, human; conditions: for CLPO / Cmin / Css: median (range), n=10
From the text: Twelve subjects were Caucasian and two were of African descent. Ten subjects completed all aspects of the study. Pharmacokinetic analyses were based on the results obtained in these subjects. […] Detection was by UV absorbance at 260 nm. […] Ritonavir and the internal standard (IS) were extracted from human plasma by liquid-liquid extraction with an ethyl acetate mixture.

[3] = Example 4: pharmacokinetic drug-drug interaction of tipranavir SEDDS 1250 mg BID and ritonavir oral solution 200 mg BID; type: in vivo, human; conditions: for CLPO / Cmin / Css: median (range)
[4] = Study 2: pharmacokinetic drug-drug interaction of tipranavir 600 or 900 mg BID and ritonavir 100-500 mg BID, plasma levels by HPLC; type: in vivo, human; conditions: for CLPO / Cmin / Css / AUC / Cmax / Tmax: median (range); for half-life / AUC / Cmax / Tmax: both sexes, human, plasma, oral; for half-life: harmonic mean (range), read-out: t½ (converted)
Experimental: Both groups received their assigned dose of tipranavir continuously throughout the study period. […] The pharmacokinetics of tipranavir when coadministered with ritonavir were evaluated and compared with baseline data, while the ritonavir data were compared to historical data. The study was conducted in 19 healthy volunteers (16 males and 3 females) with a mean age of 30 years (range, 19-52 years), height of 177.1 cm (range, 162.6-190.5 cm), and weight of 76.7 kg (range, 57.3-95.0 kg). Eighteen subjects were Caucasian […]. […] Pharmacokinetic analyses were based on those subjects completing the baseline evaluation and at least one period of concomitant drug administration. […] Detection was by UV absorbance at 260 nm. […] Ritonavir and the internal standard (IS) were extracted from human plasma by liquid-liquid extraction with an ethyl acetate mixture.

[5] = Table 1: tipranavir drug-drug interaction potential and routes of elimination of antiretrovirals; conditions: drug-drug interaction with tipranavir
[6] = Tipranavir 1350 mg BID + Ritonavir 500 mg BID
[7] = Tipranavir 1350 mg BID alone, steady state
[8] = tipranavir 1350 mg BID + ritonavir 500 mg BID vs tipranavir alone
[9] = Tipranavir SEDDS SEC 1250mg BID + Ritonavir Oral Solution 200mg BID, N=21
[10] = Tipranavir SEDDS SEC 1250mg BID alone, N=22
[11] = both sexes, human, plasma, oral, 1250 mg
[12] = Tipranavir 600 mg BID + RTV 100 mg BID, n=7
[13] = Tipranavir 600 mg BID + RTV 500 mg BID, n=7
[14] = Tipranavir 600 mg BID alone, n=7
[15] = Tipranavir 900 mg BID + RTV 100 mg BID, n=6
[16] = Tipranavir 900 mg BID + RTV 500 mg BID, n=6
[17] = Tipranavir 900 mg BID alone, n=6
[18] = 600 mg, Tipranavir 600 mg BID alone, n=7
[19] = 900 mg, Tipranavir 900 mg BID alone, n=6
[20] = tipranavir 600 mg BID + ritonavir 100 mg BID vs alone
[21] = tipranavir 600 mg BID + ritonavir 500 mg BID vs alone
[22] = tipranavir 900 mg BID + ritonavir 100 mg BID vs alone
[23] = tipranavir 900 mg BID + ritonavir 500 mg BID vs alone
[24] = delavirdine 400 mg TID + tipranavir 1200 mg BID vs delavirdine alone

## CCC[C@@]1(CCc2ccccc2)CC(O)=C([C@H](CC)c2cccc(NS(=O)(=O)c3ccc(C(F)(F)F)cn3)c2)C(=O)O1 (relative stereo) [Tipranavir, [R-(R*,R*)]-N-[3-[1-[5,6-Dihydro-4-hydroxy-2-oxo-6-(2-phenylethyl)-6-propyl-2H-pyran-3-yl]propyl]phenyl]-5-(trifluoromethyl)-2-pyridinesulfonamide]
[1]; tipranavir 1200 mg BID + delavirdine 400 mg TID, steady state
  effect of delavirdine on the pharmacokinetics of tipranavir: no effect
[2]; [6]
  CLPO: 1.9 (1.2-3.8) L/h
  Cmin: 42 (12-84) µM
  Css: 100 (49-161) µM
[2]; Tipranavir 1350 mg BID + Ritonavir 500 mg BID, listed as tipranavir
  Cmin: 42 µM
[2]; [7]
  CLPO: 31 (11-100) L/h
  Cmin: 0.78 (0.34-1.42) µM
  Css: 6.1 (1.9-16.8) µM
[2]; [8]
  effect on tipranavir elimination half-life (t½): not accompanied by a prolongation of the elimination half-life
  increase of mean steady-state plasma tipranavir concentrations (Css): 12 fold
  increase of median tipranavir Cmax value in the presence of ritonavir: approximately 5.6 fold
  increase of median tipranavir Cmin values: 45 fold
[3]; [9]
  CLPO: 1.19 (0.47-2.29) L/h
  Cmin: 62.1 (11.2-261) µM
  Css: 145 (76-371) µM
[3]; [10]
  CLPO: 12.7 (6.1-23.7) L/h
  Cmin: 0.82(0.30-2.20) µM
  Css: 13.6 (7.3-28.1) µM
[3]; [11]
  AUC: 163 µM·h
  Cmax: 56 µM
  Tmax: 2 h
[3]; both sexes, human, plasma, oral, 1250 mg, read-out: t½ (converted)
  half-life: 5.4 h
[3]; ritonavir 200 mg vs same dose (1250 mg BID) of tipranavir alone
  increase of tipranavir steady-state concentrations: more than 10 fold
[3]; tipranavir 1250 mg BID + ritonavir 200 mg BID
  effect on apparent terminal half-life of tipranavir: not significantly affected
[3]; tipranavir 1250 mg BID + ritonavir oral solution 200 mg BID vs tipranavir alone
  increase of median Cmax values: approximately 5 fold
[4]; [12]
  CLPO: 3.35 (2.44-6.07) L/h
  Cmin: 3.14 (1.61-12.8) µM
  Css: 24.8 (13.7-34.0) µM
  half-life: 2.3 h
  AUC: 297 µM·h
  Cmax: 56.8 µM
  Tmax: 2 h
[4]; [13]
  CLPO: 2.23 (1.02-4.79) L/h
  Cmin: 14.3 (4.70-32.5) µM
  Css: 37.2 (17.3-81.0) µM
  half-life: 3.7 h
  AUC: 446 µM·h
  Cmax: 78.6 µM
  Tmax: 2 h
[4]; Tipranavir 600 mg BID + RTV 500 mg BID, n=7, listed as tipranavir
  Cmin: 14.3 µM
[4]; [14]
  CLPO: 31.3 (17.3-88.8) L/h
  Cmin: 0.341 (0.165-0.929) µM
  Css: 2.70 (0.94-4.79) µM
[4]; [15]
  CLPO: 4.10 (2.45-7.86) L/h
  Cmin: 3.62 (1.98-6.95) µM
  Css: 30.6 (15.8-50.8) µM
  half-life: 1.9 h
  AUC: 368 µM·h
  Cmax: 68.9 µM
  Tmax: 3 h
[4]; [16]
  CLPO: 1.64 (1.00-2.82) L/h
  Cmin: 22.7 (9.91-63.2) µM
  Css: 76.1 (44.1-124.8) µM
  half-life: 3.5 h
  AUC: 913 µM·h
  Cmax: 148 µM
  Tmax: 2 h
[4]; [17]
  CLPO: 32.4 (20.8-53.1) L/h
  Cmin: 0.499 (0.160-1.150) µM
  Css: 3.88 (2.34-5.98) µM
[4]; [18]
  half-life: 3.6 h
  AUC: 32.5 µM·h
  Cmax: 11.3 µM
  Tmax: 2 h
[4]; [19]
  half-life: 4.2 h
  AUC: 46.5 µM·h
  Cmax: 14.6 µM
  Tmax: 2 h
[4]; extrapolated to a dose of ritonavir 30 mg BID
  predicted tipranavir concentration (target minimal therapeutic threshold): 1 µM
[4]; in combination with ritonavir 100 mg BID
  lowest median trough tipranavir concentration: exceeded 3 µM
[4]; ritonavir 100 mg BID vs same dose of tipranavir alone
  increase of plasma tipranavir concentrations: ~10 fold
[4]; [20]
  increase of median AUC values of tipranavir: approximately 9 fold
  increase of median Cmax values: 5 fold
  increase of median trough tipranavir concentrations: approximately 9 fold
[4]; [21]
  increase of median AUC values of tipranavir: approximately 14 fold
  increase of median Cmax values: 7 fold
  increase of median trough tipranavir concentrations: approximately 40 fold
[4]; tipranavir 600 mg BID with concomitant ritonavir
  effect on apparent terminal half-life of tipranavir: no prolongation of the apparent terminal half-life
[4]; tipranavir 600 mg with ritonavir 500 mg
  trough concentration: exceeding 3 µM
[4]; [22]
  increase of median AUC values of tipranavir: approximately 8 fold
  increase of median Cmax values: 5 fold
  increase of median trough tipranavir concentrations: approximately 7 fold
[4]; [23]
  increase of median AUC values of tipranavir: approximately 20 fold
  increase of median Cmax values: 10 fold
  increase of median trough tipranavir concentrations: approximately 45 fold
[4]; tipranavir 900 mg BID with concomitant ritonavir
  effect on apparent terminal half-life of tipranavir: No prolongation of the apparent terminal half-life

## CC(C)Nc1cccnc1N1CCN(C(=O)c2cc3cc(NS(C)(=O)=O)ccc3[nH]2)CC1 [Delavirdine]
[1]; coadministration with tipranavir
  decrease of delavirdine AUC by tipranavir: > 95%
[1]; [24]
  median delavirdine AUC value, fold lower: more than 20 fold
  median trough delavirdine concentration, fold lower: more than 100 fold
[5]
  Potential for Clinically Significant Interaction: High (and unfavorable)
